From US10782295B2, “Cysteine-reactive ligand discovery in proteomes” (THE SCRIPPS RESEARCH INSTITUTE, priority 2013, dated 2020)

Target: T1, FN3KRP (Homo sapiens, UniProt Q9HA64)
T1 construct: directly in native proteomes; endogenous in cells; host or cells: MDA-MB-231
T1 sequence (Q9HA64 1-309): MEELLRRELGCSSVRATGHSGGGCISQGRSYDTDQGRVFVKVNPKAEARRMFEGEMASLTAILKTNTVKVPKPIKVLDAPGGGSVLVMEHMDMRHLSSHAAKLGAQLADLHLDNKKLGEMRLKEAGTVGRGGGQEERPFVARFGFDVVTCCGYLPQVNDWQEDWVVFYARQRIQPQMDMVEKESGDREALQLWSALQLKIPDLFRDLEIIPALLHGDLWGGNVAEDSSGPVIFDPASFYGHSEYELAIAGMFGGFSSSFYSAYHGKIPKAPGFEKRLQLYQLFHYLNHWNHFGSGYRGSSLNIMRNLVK
Assay: competitive isoTOP-ABPP, MDA-MB-231 soluble proteome
Assay type: binding
Details: 100 μM LDE, 60 min; peptide ATGHSGGGC*ISQGR
Protocol: Here, we envisioned that isoTOP-ABPP could be advanced to discover and quantify reactions between cysteines in proteomes and any electrophilic compound. In this advanced, ‘competitive’ version of isoTOP-ABPP (FIG. 1a), a proteome is treated with an electrophile (experimental sample) or DMSO (control sample). Both proteomic samples are then labeled with the IA probe and conjugated by CuAAC to light and heavy azide-biotin tags, respectively. The light and heavy samples are then mixed and subjected to our described isoTOP-ABPP protocol for enrichment, identification, and quantification of IA-labeled cysteines^30. Electrophile-modified cysteines are quantified by measuring the MS1 chromatographic peak ratios (R values) for heavy (DMSO-treated) over light (electrophile-treated) samples, with higher R values reflecting greater sensitivity to the electrophile. In this format, competitive isoTOP-ABPP can assay electrophiles against 1000+ cysteines in parallel directly in native proteomes without requiring any chemical modification to the electrophiles themselves.
Competitive isoTOP-ABPP experiments were performed in quadruplicate using the soluble proteome of the human breast cancer cell line MDA-MB-231 cell line. Proteomes were treated with 100 μM HNE, 15d-PGJ2, or 2-HD, for 60 minutes, followed by the IA-probe (100 μM, 60 min) A total of ˜1400 cysteine reactivities were quantified across the aggregate data set, with at least 900 cysteine reactivities quantified for each LDE (FIG. 2a) more than 750 of which were quantified for all the three electrophiles.
The MDA-MB-231 cell proteome was treated with varying concentrations of HNE (5, 10, 50, 100 and 500 μM) for 60 min and then the IA-labeling profile of each reaction was quantitatively compared to a DMSO-control sample by isoTOP-ABPP.
HNE was purchased from EMD biosciences, 15d-PGJ2 was purchased from Cayman Chemicals and 2-HD was purchased from Santa Cruz Biotechnology. Proteome samples were diluted to a 4 mg protein/mL solution in PBS. For each profiling experiment, one aliquot of the proteome sample (0.5 mL) was treated with 100 μM of LDE using 5 μL of a 10 mM stock and the other aliquot was treated with 5 μL of either ethanol (for HNE and 15d-PGJ2) or DMSO (for 2-HD) as control. For the concentration-dependent profiling experiments using HNE, aliquots of the proteomes (0.5 mL each) were treated with 5, 10, 50, 100 and 500 μM of HNE using 5 μL of 0.5, 1.0, 5, 10 and 50 mM of stock solution, respectively. After 60 minutes of treatment at room temperature, both the LDE-treated and control aliquots were passed through a NAP-5 Sephadex column (GE healthcare) to remove any unreacted LDE. The volume of each aliquot was increased to 1 mL with the concentration at 2 mg/mL after this step.
Each of the control and LDE-treated proteome samples (˜2 mg protein/mL in 1 mL volume) was treated with 100 μM of IA-probe using 10 μL of a 10 mM stock in DMSO. The labeling reactions were incubated at room temperature for 1 hour. Click chemistry (acetylene-azide cycloaddition) was performed by the addition of 100 μM of either the Heavy-TEV-Tag (for the control sample) or Light-TEV-Tag (for the LDE-treated sample) (20 μL of a 5 mM stock), 1 mM TCEP (fresh 50× stock in water), 100 μM ligand (17× stock in DMSO:t-Butanol 1:4) and 1 mM CuSO4 (50× stock in water). Samples were allowed to react at room temperature for 1 hour. After the click chemistry step, the light and heavy-labeled samples were mixed together and centrifuged (5900×g, 4 min, 4° C.) to pellet the precipitated proteins.
The pellets were washed twice in cold MeOH, after which the pellet was solubilized in PBS containing 1.2% SDS via sonication and heating (5 min, 80° C.). Samples were subjected to streptavidin enrichment of probe-labeled proteins, sequential on-bead trypsin and TEV digestion, and liquid chromatography-mass spectrometry (LC-MS) analysis according to the published isoTOP-ABPP protocol^30. […]

| SMILES | R value (isoTOP-ABPP ratio heavy/light) for IA-labeled cysteine of FN3KRP |
| --- | --- |
| CCCCCCCCCCCCC/C=C/C=O [2-HD, 2-trans-hexadecenal] | 1.03 |
| CCCCCC(O)/C=C/C=O (stereo not drawn) [4-HNE, 4-Hydroxynonenal] | >15 |
| CCCCC/C=C/C=C1/C(=O)C=C[C@@H]1C/C=C\CCCC(=O)O [PGJ2, 15-deoxy-Δ12,14-prostaglandin J2] | 1.62 |
